Measurements as given in ChEMBL document CHEMBL4765312, “Capsaicin derivatives with nitrothiophene substituents: Design, synthesis and antibacterial activity against multidrug-resistant S. aureus” (Eur J Med Chem, 2020).
Converted amounts (≈) assume the structure as drawn. The source made the active and inactive calls. The rule behind the calls is not given here.

Columns and labels:
Staphylococcus aureus [1] = assay: Antibacterial activity against Staphylococcus aureus Newman strain assessed as reduction in bacterial growth incubated for 16 to 18 hrs by two fold serial dilution method; format: functional; details: time 16-18 hrs
Staphylococcus aureus [2] = assay: Antibiofilm activity against Staphylococcus aureus Newman strain assessed as biofilm formation at 0.78 ug/ml after 24 hrs by crystal violet staining based assay relative to control; format: functional; details: dose 0.78 µg/ml
Staphylococcus aureus [3] = assay: Potency index, ratio of vancomycin MIC to test compound MIC for antibacterial activity against multidrug-resistant Staphylococcus aureus NRS108 assessed as reduction in bacterial growth incubated for 16 to 18 hrs by two-fold serial dilution method; format: functional; details: time 16-18 hrs
Staphylococcus aureus [4] = assay: Antibacterial activity against mutidrug-resistant Staphylococcus aureus NRS100 assessed as reduction in bacterial growth incubated for 16 to 18 hrs by two fold serial dilution method; format: functional; details: time 16-18 hrs
Staphylococcus aureus [5] = assay: Potency index, ratio of vancomycin MIC to test compound MIC for antibacterial activity against multidrug-resistant Staphylococcus aureus NRS1 assessed as reduction in bacterial growth incubated for 16 to 18 hrs by two fold serial dilution method; format: functional; details: time 16-18 hrs
Staphylococcus aureus [6] = assay: Antibacterial activity against multidrug-resistant Staphylococcus aureus NRS108 assessed as reduction in bacterial growth incubated for 16 to 18 hrs by two-fold serial dilution method; format: functional; details: time 16-18 hrs
Staphylococcus aureus [7] = assay: Potency index, ratio of vancomycin MIC to test compound MIC for antibacterial activity against mutidrug-resistant Staphylococcus aureus NRS100 assessed as reduction in bacterial growth incubated for 16 to 18 hrs by two fold serial dilution method; format: functional; details: time 16-18 hrs
Staphylococcus aureus [8] = assay: Potency index, ratio of vancomycin MIC to test compound MIC for antibacterial activity against multidrug-resistant Staphylococcus aureus NRS271 assessed as reduction in bacterial growth incubated for 16 to 18 hrs by two fold serial dilution method; format: functional; details: time 16-18 hrs
Staphylococcus aureus [9] = assay: Antibacterial activity against multidrug-resistant Staphylococcus aureus NRS1 assessed as reduction in bacterial growth incubated for 16 to 18 hrs by two fold serial dilution method; format: functional; details: time 16-18 hrs
Staphylococcus aureus [10] = assay: Antibacterial activity against multidrug-resistant Staphylococcus aureus NRS70 assessed as reduction in bacterial growth incubated for 16 to 18 hrs by two fold serial dilution method; format: functional; details: time 16-18 hrs
Staphylococcus aureus [11] = assay: Antibacterial activity against multidrug-resistant Staphylococcus aureus NRS271 assessed as reduction in bacterial growth incubated for 16 to 18 hrs by two fold serial dilution method; format: functional; details: time 16-18 hrs
Staphylococcus aureus [12] = assay: Potency index, ratio of vancomycin MIC to test compound MIC for antibacterial activity against multidrug-resistant Staphylococcus aureus NRS70 assessed as reduction in bacterial growth incubated for 16 to 18 hrs by two fold serial dilution method; format: functional; details: time 16-18 hrs
Staphylococcus aureus [13] = assay: Bactericidal activity against Staphylococcus aureus Newman strain assessed as reduction in bacterial colonies formation after 24 hrs by crystal violet staining based assay; format: functional, organism-based
[14] = Cytotoxicity against human HEK293T cells assessed as reduction in cell viability measured after 48 hrs by MTT assay; format: cell-based, HEK-293T

COc1cc(CNC(=O)c2cccs2)ccc1OC(=O)c1ccc([N+](=O)[O-])s1
MIC (Staphylococcus aureus [1]): > 50 µg/mL

COc1cc(CNC(=O)CCCC/C=C/C(C)C)ccc1O [CAPSAICIN]
MIC (Staphylococcus aureus [1]): > 50 µg/mL

COc1cc(CNC(=O)c2ccc([N+](=O)[O-])o2)ccc1OC(=O)c1ccc([N+](=O)[O-])s1
MIC (Staphylococcus aureus [1]): 3.13 µg/mL (≈ 7 µM)

COc1cc(CNC(=O)c2ccc([N+](=O)[O-])o2)ccc1OC(=O)c1ccc([N+](=O)[O-])o1
MIC (Staphylococcus aureus [1]): 3.13 µg/mL (≈ 7.26 µM)

O=C(NCc1ccc(NC(=O)c2ccc([N+](=O)[O-])s2)cc1)c1ccc([N+](=O)[O-])s1
MIC (Staphylococcus aureus [1]): > 50 µg/mL

O=C(NCc1ccc(-c2noc(-c3ccc([N+](=O)[O-])s3)n2)cc1)c1ccc([N+](=O)[O-])s1
Activity (Staphylococcus aureus [2]): 80%
Ratio (Staphylococcus aureus [3]): 2
MIC (Staphylococcus aureus [1]): 0.78 µg/mL (≈ 1.71 µM)
MIC (Staphylococcus aureus [4]): 0.39 µg/mL (≈ 0.853 µM)
Ratio (Staphylococcus aureus [5]): 2
MIC (Staphylococcus aureus [6]): 0.2 µg/mL (≈ 0.437 µM)
Ratio (Staphylococcus aureus [7]): 2
Ratio (Staphylococcus aureus [8]): 2
MIC (Staphylococcus aureus [9]): 0.39 µg/mL (≈ 0.853 µM)
MIC (Staphylococcus aureus [10]): 0.2 µg/mL (≈ 0.437 µM)
MIC (Staphylococcus aureus [11]): 0.2 µg/mL (≈ 0.437 µM)
Ratio (Staphylococcus aureus [12]): 2
Activity (Staphylococcus aureus [13]): Active
CC50 at 48 h [14]: 126 µg/mL (≈ 276 µM)

COc1cc(CNC(=O)c2ncc([N+](=O)[O-])n2C)ccc1OC(=O)c1ccc([N+](=O)[O-])s1
MIC (Staphylococcus aureus [1]): > 50 µg/mL

O=C(NCc1ccc(OC(=O)c2ccc([N+](=O)[O-])s2)c(C(F)(F)F)c1)c1ccc([N+](=O)[O-])s1
MIC (Staphylococcus aureus [1]): 3.13 µg/mL (≈ 6.24 µM)

COc1cc(OC(=O)c2ccc([N+](=O)[O-])s2)ccc1CNC(=O)c1ccc([N+](=O)[O-])s1
MIC (Staphylococcus aureus [1]): 1.56 µg/mL (≈ 3.37 µM)
MIC (Staphylococcus aureus [4]): 0.78 µg/mL (≈ 1.68 µM)
MIC (Staphylococcus aureus [6]): 1.56 µg/mL (≈ 3.37 µM)
MIC (Staphylococcus aureus [9]): 0.78 µg/mL (≈ 1.68 µM)
MIC (Staphylococcus aureus [10]): 0.78 µg/mL (≈ 1.68 µM)
MIC (Staphylococcus aureus [11]): 0.78 µg/mL (≈ 1.68 µM)

COc1cc(CNC(=O)c2cccc([N+](=O)[O-])c2)ccc1OC(=O)c1ccc([N+](=O)[O-])s1
MIC (Staphylococcus aureus [1]): > 50 µg/mL

CN(Cc1ccc(N(C)C(=O)c2ccc([N+](=O)[O-])s2)cc1)C(=O)c1ccc([N+](=O)[O-])s1
MIC (Staphylococcus aureus [1]): 6.25 µg/mL (≈ 13.6 µM)

CCCCCCCCCC(=O)NCc1ccc(OC(=O)c2ccc([N+](=O)[O-])s2)c(OC)c1
MIC (Staphylococcus aureus [1]): > 50 µg/mL

COc1cc(CNC(=O)c2ccc([N+](=O)[O-])s2)ccc1OC(=O)/C=C/c1ccc([N+](=O)[O-])s1
MIC (Staphylococcus aureus [1]): > 50 µg/mL

Cc1cc(CNC(=O)c2ccc([N+](=O)[O-])s2)ccc1OC(=O)c1ccc([N+](=O)[O-])s1
MIC (Staphylococcus aureus [1]): 0.39 µg/mL (≈ 0.872 µM)
MIC (Staphylococcus aureus [4]): 0.39 µg/mL (≈ 0.872 µM)
MIC (Staphylococcus aureus [6]): 1.56 µg/mL (≈ 3.49 µM)
MIC (Staphylococcus aureus [9]): 0.39 µg/mL (≈ 0.872 µM)
MIC (Staphylococcus aureus [10]): 0.39 µg/mL (≈ 0.872 µM)
MIC (Staphylococcus aureus [11]): 0.39 µg/mL (≈ 0.872 µM)
CC50 at 48 h [14]: 168 µg/mL (≈ 375 µM)

CN[C@H](CC(C)C)C(=O)N[C@H]1C(=O)N[C@@H](CC(N)=O)C(=O)N[C@H]2C(=O)N[C@H]3C(=O)N[C@H](C(=O)N[C@H](C(=O)O)c4cc(O)cc(O)c4-c4cc3ccc4O)[C@H](O)c3ccc(c(Cl)c3)Oc3cc2cc(c3O[C@@H]2O[C@H](CO)[C@@H](O)[C@H](O)[C@H]2O[C@H]2C[C@](C)(N)[C@H](O)[C@H](C)O2)Oc2ccc(cc2Cl)[C@H]1O [VANCOMYCIN]
MIC (Staphylococcus aureus [1]): 0.78 µg/mL (≈ 0.538 µM)
MIC (Staphylococcus aureus [4]): 0.78 µg/mL (≈ 0.538 µM)
MIC (Staphylococcus aureus [6]): 0.78 µg/mL (≈ 0.538 µM)
MIC (Staphylococcus aureus [9]): 1.56 µg/mL (≈ 1.08 µM)
MIC (Staphylococcus aureus [10]): 0.39 µg/mL (≈ 0.269 µM)
MIC (Staphylococcus aureus [11]): 0.78 µg/mL (≈ 0.538 µM)
Activity (Staphylococcus aureus [13]): inactive

COc1cc(CNC(=O)c2ccc([N+](=O)[O-])s2)ccc1OC(=O)c1ncc([N+](=O)[O-])n1C
MIC (Staphylococcus aureus [1]): > 50 µg/mL

COc1cc(CNC(=O)c2ccc([N+](=O)[O-])s2)ccc1OC(=O)c1cccc([N+](=O)[O-])c1
MIC (Staphylococcus aureus [1]): > 50 µg/mL

O=C(NCc1ccc(OC(=O)c2ccc([N+](=O)[O-])s2)c(Br)c1)c1ccc([N+](=O)[O-])s1
MIC (Staphylococcus aureus [1]): 6.25 µg/mL (≈ 12.2 µM)

O=C(NCc1ccc(OC(=O)c2ccc([N+](=O)[O-])s2)c(F)c1)c1ccc([N+](=O)[O-])s1
MIC (Staphylococcus aureus [1]): 3.13 µg/mL (≈ 6.93 µM)

O=C(NCc1ccc(OC(=O)c2ccc([N+](=O)[O-])s2)cc1)c1ccc([N+](=O)[O-])s1
MIC (Staphylococcus aureus [1]): 0.78 µg/mL (≈ 1.8 µM)
MIC (Staphylococcus aureus [4]): 3.13 µg/mL (≈ 7.22 µM)
MIC (Staphylococcus aureus [6]): 3.13 µg/mL (≈ 7.22 µM)
MIC (Staphylococcus aureus [9]): 0.78 µg/mL (≈ 1.8 µM)
MIC (Staphylococcus aureus [10]): 0.78 µg/mL (≈ 1.8 µM)
MIC (Staphylococcus aureus [11]): 1.56 µg/mL (≈ 3.6 µM)
CC50 at 48 h [14]: 251 µg/mL (≈ 579 µM)

O=C(Nc1ccc([N+](=O)[O-])s1)c1ccc(CNC(=O)c2ccc([N+](=O)[O-])s2)cc1
MIC (Staphylococcus aureus [1]): > 50 µg/mL

O=C(NCc1ccc(OC(=O)c2ccc([N+](=O)[O-])s2)c([N+](=O)[O-])c1)c1ccc([N+](=O)[O-])s1
MIC (Staphylococcus aureus [1]): 6.25 µg/mL (≈ 13.1 µM)

O=C(NCc1ccc(Oc2ccc([N+](=O)[O-])s2)cc1)c1ccc([N+](=O)[O-])s1
MIC (Staphylococcus aureus [1]): 3.13 µg/mL (≈ 7.72 µM)

COc1cc(CNC(=O)/C=C/c2ccc([N+](=O)[O-])s2)ccc1OC(=O)c1ccc([N+](=O)[O-])s1
MIC (Staphylococcus aureus [1]): > 50 µg/mL

COc1cc(CNC(=O)c2ccc([N+](=O)[O-])s2)ccc1OC(=O)c1ccc([N+](=O)[O-])o1
MIC (Staphylococcus aureus [1]): 6.25 µg/mL (≈ 14 µM)

COc1cc(CNC(=O)c2ccc([N+](=O)[O-])s2)ccc1OC(=O)c1ccc([N+](=O)[O-])s1
MIC (Staphylococcus aureus [1]): 1.56 µg/mL (≈ 3.37 µM)
MIC (Staphylococcus aureus [4]): 0.78 µg/mL (≈ 1.68 µM)
MIC (Staphylococcus aureus [6]): 1.56 µg/mL (≈ 3.37 µM)
MIC (Staphylococcus aureus [9]): 0.78 µg/mL (≈ 1.68 µM)
MIC (Staphylococcus aureus [10]): 0.78 µg/mL (≈ 1.68 µM)
MIC (Staphylococcus aureus [11]): 0.78 µg/mL (≈ 1.68 µM)
CC50 at 48 h [14]: 61 µg/mL (≈ 132 µM)

COc1cc(CNC(=O)c2ccc([N+](=O)[O-])s2)ccc1O
MIC (Staphylococcus aureus [1]): > 50 µg/mL

COc1cc(CNC(=O)c2ccc([N+](=O)[O-])s2)ccc1OC(=O)c1cccs1
MIC (Staphylococcus aureus [1]): > 50 µg/mL

COc1cc(CNC(=O)c2ccc([N+](=O)[O-])s2)cc(OC)c1OC(=O)c1ccc([N+](=O)[O-])s1
MIC (Staphylococcus aureus [1]): 3.13 µg/mL (≈ 6.34 µM)

NC[C@H]1O[C@H](O[C@H]2[C@H](O)[C@@H](O[C@H]3O[C@H](CO)[C@@H](O)[C@H](N)[C@H]3O)[C@H](N)C[C@@H]2N)[C@H](O)[C@@H](O)[C@@H]1O [KANAMYCIN]
MIC (Staphylococcus aureus [1]): 3.13 µg/mL (≈ 6.46 µM)
MIC (Staphylococcus aureus [4]): 1.56 µg/mL (≈ 3.22 µM)
MIC (Staphylococcus aureus [6]): > 50 µg/mL
MIC (Staphylococcus aureus [9]): > 50 µg/mL
MIC (Staphylococcus aureus [10]): > 50 µg/mL
MIC (Staphylococcus aureus [11]): 3.13 µg/mL (≈ 6.46 µM)

O=C(NCc1ccc(OC(=O)c2ccc([N+](=O)[O-])s2)c(Cl)c1)c1ccc([N+](=O)[O-])s1
MIC (Staphylococcus aureus [1]): 0.78 µg/mL (≈ 1.67 µM)
MIC (Staphylococcus aureus [4]): 3.13 µg/mL (≈ 6.69 µM)
MIC (Staphylococcus aureus [6]): 1.56 µg/mL (≈ 3.33 µM)
MIC (Staphylococcus aureus [9]): 0.78 µg/mL (≈ 1.67 µM)
MIC (Staphylococcus aureus [10]): 0.39 µg/mL (≈ 0.834 µM)
MIC (Staphylococcus aureus [11]): 1.56 µg/mL (≈ 3.33 µM)
